According to US10064909B2, “Compositions and methods for chronic use of a weight-gaining compound” (priority 2015, dated 2018):

How the values were obtained:
Type in all cases: in vivo
[1] = Dose titration laboratory study (10 days): food consumption and bodyweight; settings: cats
Procedure: (§1) This study defined a capromorelin oral solution dose regime that provides increased food intake and weight gain and the accompanying desired profile of IGF-1 serum levels. Laboratory adult cats were housed individually and divided into five groups (3/sex/group; n=6/group). Cats were dosed once daily for 10 consecutive days with either placebo, 1 mg/kg AT-002, 2 mg/kg AT-002, 3 mg/kg AT-002 or 4 mg/kg AT-002. The test article was a flavored solution formulation very similar to the final formulation. Study activities are summarized at Table 5.
The percent change in food consumption from baseline (average of Day −3, Day −2, and Day −1) compared to the treatment period (average of Day 1 through Day 10) was calculated for each cat, and is summarized at Table 6. The mean percent change from baseline to the treatment period for the placebo group increased 13.0%.
The percent change in bodyweight from Day −1 compared to Day 10 was calculated for each cat, and is summarized at table 7. The mean percent change for the placebo group was −0.35%, indicating a decrease in weight. […] The 4 mg/kg AT-002 group approached statistical significance (p=0.0502)

[2] = Dose titration laboratory study (10 days): capromorelin serum levels; settings: cats
Procedure: as §1

[3] = Pilot clinical field study in cats with CKD (Example 11); settings: for mean bodyweight change (±SEM): 2 mg/kg oral once daily
Procedure: This placebo controlled, masked non-GCP study was to confirm the safety and effectiveness (weight gain) of AT-002 (capromorelin) at a dose of 2 mg/kg administered once daily for 90 days in cats with CKD and a history of losing weight.
A total of 42 cats were screened at 7 veterinary clinics. Of these 42 cats, 1 was a screen failure, resulting in 41 cats being enrolled and randomized to 1 of 2 treatments, capromorelin oral solution (AT-002) or placebo (CP). Eligible study candidates included cats that presented to the veterinary clinic with a diagnosis of CKD (IRIS stages II, III or IV) and a documented decrease in bodyweight over the previous 6 months. Test articles were provided as flavored oral solutions and were administered orally once daily beginning on Day 0 for 90±3 days, AT-002 at a dose rate of 2 mg/kg and CP at the equivalent dose volume to AT-002. The Investigator, study staff and cat Owners were masked to treatment. Cats were re-evaluated at the clinic on Day 14±1, Day 30±2, Day 60±3 and Day 90±3.
The key variable for the determination of effectiveness was bodyweight. Other effectiveness variables measured included body condition score, muscle condition score, quality of life assessments (unvalidated) and owner appetite assessments (unvalidated). Safety was assessed by physical examinations, clinical pathology testing (hematology and serum chemistry), urinalysis, serum IGF-1 levels and adverse event monitoring.

[4] = test system: GH; assay: 91-day cat safety study: serum GH; settings: cats, 6 mg/kg, compared to placebo controls; attenuated through Days 30, 59, 91
Procedure: (§2) This controlled study included two treatment groups with 4 adult cats receiving placebo (Group 1) and 8 adult cats receiving capromorelin (Formulation #9, as described above) (Group 2) for 91 consecutive days. All cats were offered food daily for a 6-hour period following an 11-day acclimation phase. All cats were weighed on Days −11, −1, 1, 14, 30, 59, 75, and 91. On Days 1 through 91, animals were orally administered capromorelin once daily via syringe at dose levels of 0 or 6 mg/kg. At one hour post-dose, all cats were offered food for a 6-hour period. Variables of interest included weight gain/loss, food consumption, clinical pathology, and serum analysis of IGF-1 and GH.
On Days 1, 30, 59, and 91, blood samples were collected prior to daily dose administration and at 8 hours post-dose and processed to serum for analysis of IGF-1 and GH levels. […] Serum chemistry parameters measured included albumin (ALB), creatine kinase (CK), albumin/globulin ratio (A\G), globulin (GLOB), alkaline phosphatase (ALP), glucose (GLU), fructosamine, alanine aminotransferase (ALT), blood urea nitrogen (BUN), phosphorus (PHOS), calcium (Ca), potassium (K), chloride (Cl), sodium (Na), cholesterol (CHOL), total protein (TP), creatinine (CRE), total bilirubin (TBIL), BUN/creatinine ratio, and sodium/potassium ratio.

[5] = Safety of daily capromorelin in cats for 91 days at an oral dose of 6 mg/kg
Procedure: as §2
On Days 1, 30, 59, and 91, blood samples were collected prior to daily dose administration and at 8 hours post-dose and processed to serum for analysis of IGF-1 and GH levels. Hematology parameters included white blood count (WBC), hemoglobin (HgB), red blood count (RBC), platelet count (PLT), platelet morphology, hematocrit (HCT), mean corpuscular volume (MCV), mean corpuscular hemoglobin (MCH), WBC differential, RBC and WBC morphology, mean corpuscular hemoglobin concentration (MCHC), reticulocytes, and blood smear. Serum chemistry parameters measured included albumin (ALB), creatine kinase (CK), albumin/globulin ratio (A\G), globulin (GLOB), alkaline phosphatase (ALP), glucose (GLU), fructosamine, alanine aminotransferase (ALT), blood urea nitrogen (BUN), phosphorus (PHOS), calcium (Ca), potassium (K), chloride (Cl), sodium (Na), cholesterol (CHOL), total protein (TP), creatinine (CRE), total bilirubin (TBIL), BUN/creatinine ratio, and sodium/potassium ratio.
Urine samples were collected via cystocentesis and/or by collection in pans/trays from all cats for urinalysis. Before blood collection, all animals were fasted at least 8 hours. Urinalysis parameters measured included specific gravity (SG), pH (PH), color (COL), clarity (CLAR), blood (BLO), protein (UPRO), bilirubin (UBIL), glucose (UGLU), ketones (KET), and the microscopic examination of the sediments for RBC/hpf, WBC/hpf, bacteria (BACT), epithelial cells, mucus, casts, and crystals.

[6] = 2 mg/kg, 90 days, PPP1, not statistically significant vs placebo

CN1N=C2CCN(C(=O)[C@@H](COCc3ccccc3)NC(=O)C(C)(C)N)C[C@@]2(Cc2ccccc2)C1=O.O=C(O)C(O)C(O)C(=O)O [capromorelin, N-[(2R)-1-[(3aR)-2-methyl-3-oxo-3a-(phenylmethyl)-6,7-dihydro-4H-pyrazolo[4,3-c]pyridin-5-yl]-1-oxo-3-(phenylmethoxy)propan-2-yl]-2-amino-2-methylpropanamide L-tartrate]
Food Consumption, Percent Change From Baseline ([1]; 1 mg/kg SID, Day 1-10 vs Days -3 to -1): 30.54% | Bodyweight, Percent Change From Baseline ([1]; 1 mg/kg SID, Day -1 to Day 10): 3.07% | Food Consumption, Percent Change From Baseline ([1]; 2 mg/kg SID, Day 1-10 vs Days -3 to -1): 45.53% | Bodyweight, Percent Change From Baseline ([1]; 2 mg/kg SID, Day -1 to Day 10): 3.66% | Food Consumption, Percent Change From Baseline ([1]; 3 mg/kg SID, Day 1-10 vs Days -3 to -1): 54.04% | Bodyweight, Percent Change From Baseline ([1]; 3 mg/kg SID, Day -1 to Day 10): 5.72% | Food Consumption, Percent Change From Baseline ([1]; 4 mg/kg SID, minus 5F1, Day 1-10 vs Days -3 to -1): 78.82% | Bodyweight, Percent Change From Baseline ([1]; 4 mg/kg SID, minus 5F1, Day -1 to Day 10): 3.57% | capromorelin accumulation in serum ([2]; 10 days once daily): no evidence of capromorelin accumulation | capromorelin serum concentrations by 8 hours post-dose ([2]; all AT-002 treated groups): very low levels | absorption ([2]; oral flavored solution): well absorbed | time of maximum serum concentrations ([2]; oral solution 1-4 mg/kg, post-dose): ≤ 30 min | mean body condition score (scale of 1 to 9) [3, 6]: increased slightly | mean muscle condition score (scale of 0 to 3) [3, 6]: increased | % Success, success defined as greater than 0% gain ([3]; 2 mg/kg, Day 14, PPP2): 86.7% | % Success, success defined as maintenance or gain ([3]; 2 mg/kg, Day 14, PPP2): 86.7% | Body weight successes per group, success defined as greater than 0% gain ([3]; 2 mg/kg, Day 14, PPP2): 13/15 | Bodyweight successes per group, success defined as maintenance or gain ([3]; 2 mg/kg, Day 14, PPP2): 13/15 | % Success, success defined as greater than 0% gain ([3]; 2 mg/kg, Day 30, PPP2): 86.7% | % Success, success defined as maintenance or gain ([3]; 2 mg/kg, Day 30, PPP2): 93.3% | Body weight successes per group, success defined as greater than 0% gain ([3]; 2 mg/kg, Day 30, PPP2): 13/15 | Bodyweight successes per group, success defined as maintenance or gain ([3]; 2 mg/kg, Day 30, PPP2): 14/15 | % Success, success defined as greater than 0% gain ([3]; 2 mg/kg, Day 60, PPP2): 66.7% | % Success, success defined as maintenance or gain ([3]; 2 mg/kg, Day 60, PPP2): 80.0% | Body weight successes per group, success defined as greater than 0% gain ([3]; 2 mg/kg, Day 60, PPP2): 10/15 | Bodyweight successes per group, success defined as maintenance or gain ([3]; 2 mg/kg, Day 60, PPP2): 12/15 | change in mean descriptive quality of life monthly score (±SEM) from Day 0 ([3]; 2 mg/kg, Day 90): 0.00±0.11 | % Success, success defined as greater than 0% gain ([3]; 2 mg/kg, Day 90, PPP2): 73.3% | % Success, success defined as maintenance or gain ([3]; 2 mg/kg, Day 90, PPP2): 80.0% | Body weight successes per group, success defined as greater than 0% gain ([3]; 2 mg/kg, Day 90, PPP2): 11/15 | Bodyweight successes per group, success defined as maintenance or gain ([3]; 2 mg/kg, Day 90, PPP2): 12/15 | mean descriptive owner appetite assessment monthly scores ([3]; 2 mg/kg, compared to placebo, Days 30, 60, 90, PPP1): did not change significantly | mean descriptive quality of life monthly score (±SEM), scale of 1 to 5 ([3]; capromorelin group, Day 0 (baseline)): 3.85±0.19 | tolerability ([3]; cats with CKD, 2 mg/kg once daily, 90 days): well-tolerated | mean bodyweight change (±SEM) ([3]; cats with CKD, Day 14, n = 13, PPP1): 2.93% ± 0.70% | mean bodyweight change (±SEM) ([3]; cats with CKD, Day 30, n = 13, PPP1, L-tartrate, 2 mg/kg): 3.86%±0.85% | mean bodyweight change (±SEM) ([3]; cats with CKD, Day 30, n = 13, PPP1, listed as Capromorelin, L-tartrate, 2 mg/kg): 3.86% ± 0.85% | mean bodyweight change (±SEM) ([3]; cats with CKD, Day 60, n = 13, PPP1, L-tartrate, 2 mg/kg): 4.06%±1.42% | mean bodyweight change (±SEM) ([3]; cats with CKD, Day 60, n = 13, PPP1, listed as Capromorelin, L-tartrate, 2 mg/kg): 4.06% ± 1.42% | mean bodyweight change (±SEM) ([3]; cats with CKD, Day 90, n = 13, PPP1, L-tartrate, 2 mg/kg): 3.59%±1.59% | mean bodyweight change (±SEM) ([3]; cats with CKD, Day 90, n = 13, PPP1, listed as Capromorelin, L-tartrate, 2 mg/kg): 3.59% ± 1.59% | GH following treatment [4]: increased | resolution of post-dose clinical observations ([5]; 6 mg/kg): usually resolved within five minutes | mean rate of bodyweight change ([5]; 6 mg/kg oral once daily, 91 days): 0.0086 | mean bodyweight change from baseline (Day 1) ([5]; 6 mg/kg oral once daily, Day 14): 0.26 kg | mean bodyweight change from baseline (Day 1) ([5]; 6 mg/kg oral once daily, Day 30): 0.46 kg | mean bodyweight change from baseline (Day 1) ([5]; 6 mg/kg oral once daily, Day 59): 0.64 kg | mean bodyweight change from baseline (Day 1) ([5]; 6 mg/kg oral once daily, Day 75): 0.73 kg | mean bodyweight change from baseline (Day 1) ([5]; 6 mg/kg oral once daily, Day 91): 0.80 kg | food consumption, mean change from baseline ([5]; 6 mg/kg oral once daily, baseline average of Days -3 through -1): 14.95 grams | mean rate of bodyweight change, factor vs placebo ([5]; 6 mg/kg, 0.0086 vs 0.0010 for placebo): 8.6 | chronic hyperglycemia ([5]; 6 mg/kg, 91 days): no chronic hyperglycemia | food consumption, mean rate of change ([5]; 6 mg/kg, a rate of one = one more gram of food consumed each day): 1.2396 | creatinine levels ([5]; 6 mg/kg, acclimation to Day 91, reference range 0.6 to 2.4 mg/dL): within the normal reference range | BUN levels ([5]; 6 mg/kg, acclimation to Day 91, reference range 14 to 36 mg/dL): within the normal reference range | serum glucose levels ([5]; 6 mg/kg, compared to the placebo group): increased | serum fructosamine ([5]; 6 mg/kg, reference range 191 to 349 μmol/L): No fructosamine values exceeded the normal reference range | most common clinical observations ([5]; 6 mg/kg, seen immediately post-dose): hypersalivation (ptyalism), lip smacking, emesis, and head shaking
